Where two headings read alike, the source gives them in different places.
Assays:
[1] = Pharmacokinetics of oral microdosed FXaI cocktail; conditions: for sex differences in pharmacokinetics (in words): 7 male, 11 female; for Cl/F (apparent oral clearance) / Ae (amount excreted in urine as parent drug): geom. mean (95% CI); for interaction / change of pharmacokinetics during voriconazole (in words): microdose cocktail with voriconazole
[2] = cited from earlier work
[3] = Safety: adverse events in study participants; conditions: for total number of AEs / participants with adverse event (AE): during the treatment named; for participants with adverse event (AE): healthy participants
CYP3A = CYP3A activity by oral microdosed midazolam; conditions: for AUC: both, human, in vivo, geom. mean
[4] = cited from earlier work; remark: listed apart in the source
[5] = microdose cocktail alone, cobicistat cohort (n = 6)
[6] = microdose cocktail alone, rifampicin cohort (n = 6)
[7] = microdose cocktail alone, voriconazole cohort (n = 6)
[8] = microdose cocktail during voriconazole (n = 6)
[9] = FXaI with cobicistat / FXaI alone

Compound: COc1ccc(-n2nc(C(N)=O)c3c2C(=O)N(c2ccc(N4CCCCC4=O)cc2)CC3)cc1 [apixaban]
- sex differences in pharmacokinetics (in words) [1]: No sex differences
- Cl/F reduced to (% of FXaI alone) ([1]; by cobicistat): 60%
- Vss/F reduced to (% of FXaI alone) ([1]; by cobicistat): ~50%
- increase of AUC ([1]; by cobicistat): 67%
- reduction of clearance ([1]; by cobicistat): 40%
- Cl/F reduced to (% of FXaI alone) ([1]; by single dose rifampicin): 75%
- Vss/F reduced to (% of FXaI alone) ([1]; by single dose rifampicin): ~50%
- effect on Cmax (increase) ([1]; by single dose rifampicin): 69%
- reduction of clearance ([1]; by single dose rifampicin): 25%
- terminal elimination half-life shortening ([1]; by single dose rifampicin): ~40%
- Cl/F reduced to (% of FXaI alone) ([1]; by voriconazole): 75%
- effect on Cmax (increase) ([1]; by voriconazole): 15%
- reduction of apparent oral clearance (Cl/F) ([1]; by voriconazole): 25%
- renal clearance reduced to (% of FXaI alone) ([1]; during cobicistat): 70%
- Cl/F (apparent oral clearance) [1, 5]: 66.4 (60.0–73.5) mL/min
- Cl/F (apparent oral clearance) [1, 6]: 53.6 (44.5–64.6) mL/min
- Cl/F (apparent oral clearance) [1, 7]: 78.0 (69.0–88.4) mL/min
- Cl/F (apparent oral clearance) [1, 8]: 58.8 (42.5–81.4) mL/min
- interaction / change of pharmacokinetics during voriconazole (in words) [1]: minor interaction
- excreted unchanged into faeces and urine ([2]; given orally): ≥ 50%
- fraction metabolised by CYP1A2 and CYP2J2 ([2]; given orally): about 6%
- fraction metabolised via CYP3A ([2]; given orally): approximately 15%
- not identified or recovered so far ([2]; given orally): about 22%

Compound: CC(C)c1nc(CN(C)C(=O)N[C@@H](CCN2CCOCC2)C(=O)N[C@H](CC[C@H](Cc2ccccc2)NC(=O)OCc2cncs2)Cc2ccccc2)cs1 [cobicistat]
- total number of AEs [3]: 3
- participants with adverse event (AE) [3]: 3 out of 6

Compound: Cn1c(Cn2ccc(C(F)(F)F)c(Oc3cc(Cl)cc(C#N)c3)c2=O)n[nH]c1=O [doravirine]
- elimination half-life ([2]; alone): 18.6 h
- elimination half-life ([2]; with a single dose of rifampicin): 5.5 h

Compound: CN1CCc2nc(C(=O)N[C@@H]3C[C@@H](C(=O)N(C)C)CC[C@@H]3NC(=O)C(=O)Nc3ccc(Cl)cn3)sc2C1 [edoxaban]
- sex differences in pharmacokinetics (in words) [1]: No sex differences
- Cl/F reduced to (% of FXaI alone) ([1]; by cobicistat): 57%
- Vss/F reduced to (% of FXaI alone) ([1]; by cobicistat): 42%
- terminal elimination half-life shortening ([1]; by cobicistat): 25%
- Cl/F reduced to (% of FXaI alone) ([1]; by single dose rifampicin): 53%
- Vss/F reduced to (% of FXaI alone) ([1]; by single dose rifampicin): 37%
- terminal elimination half-life shortening ([1]; by single dose rifampicin): 30%
- increased fraction excreted unchanged into urine ([1]; by single oral dose of rifampicin): 48.7%
- Ae (amount excreted in urine as parent drug) [1, 5]: 32.3 (23.6–44.3) % of dose
- Cl/F (apparent oral clearance) [1, 5]: 682 (578–804) mL/min
- Ae (amount excreted in urine as parent drug) [1, 6]: 27.2 (19.1–38.8) % of dose
- Cl/F (apparent oral clearance) [1, 6]: 643 (499–829) mL/min
- Ae (amount excreted in urine as parent drug) [1, 7]: 24.4 (17.7–33.6) % of dose
- Cl/F (apparent oral clearance) [1, 7]: 882 (619–1255) mL/min
- Ae (amount excreted in urine as parent drug) [1, 8]: 29.4 (21.2–40.8) % of dose
- Cl/F (apparent oral clearance) [1, 8]: 700 (445–1100) mL/min
- interaction / change of pharmacokinetics during voriconazole (in words) [1]: none and No significant change
- oral bioavailability [2]: ~ 50%
- excreted unchanged into urine ([2]; of an oral dose): About 24%
- found in faeces as parent drug ([2]; of the oral dose): ~ 50%

Compound: Cc1ncc2n1-c1ccc(Cl)cc1C(c1ccccc1F)=NC2 [midazolam]
- AUC (CYP3A; AUC2–4, 10 μg midazolam + cobicistat (n = 6)): 0.27 ng·h/mL
- AUC (CYP3A; AUC2–4, 10 μg midazolam + voriconazole (n = 6)): 0.285 ng·h/mL

Compound: CO[C@H]1/C=C/O[C@@]2(C)Oc3c(C)c(O)c4c(O)c(c(/C=N/N5CCN(C)CC5)c(O)c4c3C2=O)NC(=O)/C(C)=C\C=C\[C@H](C)[C@H](O)[C@@H](C)[C@@H](O)[C@@H](C)[C@H](OC(C)=O)[C@@H]1C [rifampicin]
- participants with adverse event (AE) [3]: none

Compound: O=C(NC[C@H]1CN(c2ccc(N3CCOCC3=O)cc2)C(=O)O1)c1ccc(Cl)s1 [rivaroxaban]
- sex differences in pharmacokinetics (in words) [1]: No sex differences
- AUC ratio (AUCR) [1, 9]: 2.0
- Cmax ratio [1, 9]: 1.39
- Vss/F reduced to (% of FXaI alone) ([1]; by cobicistat): 72%
- renal clearance reduced by ([1]; by cobicistat): ~50%
- terminal elimination half-life prolongation ([1]; by cobicistat): 40%
- Vss/F reduced to (% of FXaI alone) ([1]; by single dose rifampicin): 64%
- terminal elimination half-life shortening ([1]; by single dose rifampicin): 31%
- change of AUC ([1]; by voriconazole): 33%
- reduction of apparent oral clearance (Cl/F) ([1]; by voriconazole): 33%
- Ae (amount excreted in urine as parent drug) [1, 5]: 44.5 (32.5–61.1) % of dose
- Cl/F (apparent oral clearance) [1, 5]: 104 (84–129) mL/min
- Ae (amount excreted in urine as parent drug) [1, 6]: 54.8 (48.7–61.6) % of dose
- Cl/F (apparent oral clearance) [1, 6]: 113 (84–152) mL/min
- Ae (amount excreted in urine as parent drug) [1, 7]: 53.7 (46.2–60.1) % of dose
- Cl/F (apparent oral clearance) [1, 7]: 121 (85–172) mL/min
- Ae (amount excreted in urine as parent drug) [1, 8]: 55.5 (47.8–64.4) % of dose
- Cl/F (apparent oral clearance) [1, 8]: 92 (62–137) mL/min
- interaction / change of pharmacokinetics during voriconazole (in words) [1]: minor interaction
- share of CYP3A and CYP2J2 in total clearance [2]: ~ 32%
- AUC ratio with and without ketoconazole ([4]; microdosed FXaI cocktail): 2.27
- AUC ratio with and without ketoconazole ([4]; therapeutic dose, single-dose, 200 mg ketoconazole): 1.82
- AUC ratio with and without ketoconazole ([4]; therapeutic dose, steady-state, 400 mg ketoconazole): 2.58

Compound: C[C@@H](c1ncncc1F)[C@](O)(Cn1cncn1)c1ccc(F)cc1F [voriconazole]
- total number of AEs [3]: 7
- participants with adverse event (AE) [3]: Five out of 6
- visual disturbances (number of AEs) ([3]; during voriconazole treatment): 4
- CYP3A inhibition (in words) (CYP3A; judged from microdosed midazolam exposure): strong CYP3A inhibitors

Source: article PMC7373712 (British Journal of Clinical Pharmacology, 2020)
